# US20180200233A1, “COMPOSITIONS FOR PREVENTING CANCERS ASSOCIATED WITH HUMAN PAPILLOMA VIRUSES” (Loma Linda University, priority 2015, published 2018)
# Assays:
# Type in all cases: cell-based, human
# [1] = test system: caspase 3/7 activity in SiHa cells; experiment: Caspase 3/7 activity assay in SiHa cells; conditions: 100 μM myricetin or 50 μM spinacine 4 h, TRAIL 100 ng/ml + cycloheximide, 0-6 h
# Experimental: FIGS. 4A-C are graphs showing that myricetin and spinacine (5) increased caspase 3/7 activity in SiHa cells following treatment with TRAIL and chemotherapy drugs. SiHa cells (2×10^4 cells per well) were seeded into a 96-well plate and allowed to incubate overnight, then pre-treated with 100 μM of myricetin or 50 μM of spinacine for 4 h. (FIG. 4A) TRAIL (100 ng/ml), along with cycloheximide (5 μg/ml), (FIG. 4B) cisplatin (50 μM), or (FIG. 4C) doxorubicin (2 μM) were added respectively. Caspase 3/7 activity was measured after 0, 1.5, 3, and 6 hours using the […] assay. Activity at 0 h of treatment was set at 100% for each group. […]
# Activation of caspase 3/7 is an essential marker for both extrinsic and intrinsic apoptosis, and can be used to determine whether cell death occurs through the apoptotic pathway. […] To test this, caspase 3/7 activity was measured in SiHa cells following TRAIL, cisplatin and doxorubicin treatment in the presence or absence of myricetin or spinacine.
# Cells were plated into 96-well plates at a density of 2×10^4 cells per well and incubated overnight. […] Caspase 3/7 activity was measured using the […] for caspase 3/7 activity (Promega, Fitchburg, Wis., USA) following the manufacturer's instructions. […] The resulting difference was expressed as a percentage of the caspase activity of the untreated cells.
# SiHa cells = experiment: in vitro
# Experimental: FIGS. 3A-E are graphs providing data regarding resistance of HPV^+ SiHa cells to TRAIL-, cisplatin- and […] apoptosis, in the presence and absence of small molecules as disclosed herein. (FIG. 3A) HPV^+ SiHa cells are resistant to TRAIL-induced apoptosis as compared to the human osteosarcoma cell line U2OS. Cells (2×10^4 cells per well) were seeded into a 96-well plate, allowed to incubate overnight, and then treated with indicated concentration of TRAIL in the presence of cycloheximide (5 μg/ml). The viability of cells was measured after overnight incubation using the MTT assay; the viability of cells untreated with TRAIL was set at 100% for each group. (FIG. 3B) The indicated concentrations of three small molecules were added to SiHa cells, and an MTT assay was preformed after overnight incubation. The viability of cells untreated with small molecules was set as 100%. (FIG. 3C) The indicated concentrations of myricetin or spinacine were added 4 h prior to TRAIL (100 ng/ml) in the presence of cycloheximide (5 μg/ml) and incubated at 37° C. overnight. The viability of cells untreated with small molecules was set at 100%. (FIG. 3D and FIG. 3E) SiHa cells (2×10^4 cells per well) were seeded into a 96-well plate and allowed to incubate overnight. 100 μM of myricetin and 50 μM of spinacine were added 4 h prior to either (FIG. 3D) doxorubicin or (FIG. 3E) cisplatin. Cell viability was measured after overnight incubation using the MTT assay, and the viability of cells untreated with either myricetin or spinacine was set at 100%. Experiments were performed in triplicate, and error bars indicate the standard deviation.
# The molecules were then tested to determine whether those that block E6/caspase 8 binding in vitro could also act in the context of a cell. SiHa cells are an HPV^+ cell line, derived from a cervical carcinoma, which serves as a commonly used model for HPV-associated malignancies. To determine whether HPV^+ SiHa cells are resistant to TRAIL-induced apoptosis, SiHa cells were treated with TRAIL and cell viability was assessed. TRAIL-sensitive, HPV^− U2OS cells served as a positive control. […] Myricetin and/or spinacine were tested to determine if they could sensitize these HPV^+ cells to TRAIL-induced apoptosis. […] Table 2 lists and compares the concentrations of the three tested compounds required to induce death in 50% of SiHa cells in the presence or absence of TRAIL.
# The extracellular domain of human TRAIL was cloned into a pTriEx expression plasmid containing N-terminal Hisx6 tag. His-TRAIL was expressed in the E. coli BL-21 pLys strain and purified as previously described. Doxorubicin and cisplatin were purchased from Sigma. His-TRAIL, doxorubicin, and cisplatin were diluted in PBS to the desired concentration before using. To measure cell survival following treatment with TRAIL, cisplatin and doxorubicin, SiHa (2×10^4/well), C33A (1×10^4/well), and HNSCC cells (2×10^4/well) were seeded into 96-well plates and allowed to adhere overnight. Small molecules at the desired concentration were added and incubated at 37° C. for 4 h. As indicated, TRAIL, cisplatin or doxorubicin was then added. […] All experiments were repeated at least three times (three biological replicates, carried out on different days), with each experimental group measured in triplicate within each of these individual experiments. […]
# C33A cells = experiment: MTT cell viability, HPV- C33A cells with TRAIL; conditions: 100 μM myricetin or 50 μM spinacine for 4 h
# Experimental: FIGS. 5A-B are graphs showing myricetin and spinacine (5) re-sensitized HPV^+, but not HPV^−, cells to treatment with TRAIL. SiHa (2×10^4 cells per well) and C33A cells (1×10^4 cells per well) were seeded into a 96-well plate and allowed to incubate overnight, then cells were pre-treated in the presence or absence of myricetin (100 μM) (FIG. 5A) or spinacine (50 μM) (FIG. 5B) for 4 h. The indicated concentration of TRAIL, along with cycloheximide (5 μg/ml) was added and cells were allowed to incubate overnight. Cell viability was measured by MTT assay, and the viability of cells untreated with TRAIL was set at 100%. Experiments were performed in triplicate, and error bars indicate the standard deviation.
# The extracellular domain of human TRAIL was cloned into a pTriEx expression plasmid containing N-terminal Hisx6 tag. His-TRAIL was expressed in the E. coli BL-21 pLys strain and purified as previously described. Doxorubicin and cisplatin were purchased from Sigma. His-TRAIL, doxorubicin, and cisplatin were diluted in PBS to the desired concentration before using. […] All experiments were repeated at least three times (three biological replicates, carried out on different days), with each experimental group measured in triplicate within each of these individual experiments. […]
SMILES,caspase 3/7 activity when combined with TRAIL (in words) [1],toxicity to SiHa cells in the absence of TRAIL (in words) (SiHa cells),response of C33A cells to TRAIL-mediated apoptosis after pre-treatment (in words) (C33A cells)
"O=C(O)C1Cc2[nH]cnc2CN1 (centres unmarked) [Compound 5, 4,5,6,7-Tetrahydro-1H-imidazo(4,5-c)pyridine-6-carboxylic acid]",increased significantly,low toxicity,–
"O=c1c(O)c(-c2cc(O)c(O)c(O)c2)oc2cc(O)cc(O)c12 [Myricetin, reference compound]",increased significantly,low toxicity,remained resistant
